Test [1] relates to K48-Ub (lysine-48 chain linkage of poly-ubiquitin) in A549 cells. Nature of the test: A549 K48-Ub accumulation, immunofluorescence high-content imaging. Format: cell-based. The settings on record: Homo sapiens, 6 hr incubation. As for the experimental part: Image-analysis is used to generate quantitative data from these assays that can be fit to a four-parameter sigmoid curve to derive IC50 values. Substrates of the ubiquitin-proteasome system, such as p53, are monitored after tumor cell lines are incubated with compounds for several hours. Accumulation of these proteins indicates an inhibition of proteasome-mediated degradation. Accumulation of lysine-48 chain linkage of poly-ubiquitin is also monitored by immunofluorescence as an indicator of ubiquitin-proteasome system inhibition. Both LC3 and SQSTM1 are mediators of autophagy. The localization and amounts of these proteins are monitored by immunofluorescence and report on the activity and inhibition of autophagy in response to p97 inhibition.
(§1) Cell Plating: • Seed cells ˜16 hrs prior to compound treatment • Plate 25 μL of A549 cells in every well of 384-well plate using multidrop. • Two (2) black plates for IF at 2500 cells/well • Let plate sit at room temp for 10-15 minutes prior to putting in incubator to • allow cells to stick in middle of plate. • One (1) white plate for viability at 500 cells/well.
(§2) Day 2 Treatment of Cultured Cells with Test Compounds • Treat Cells: • Serial dilute compounds with a 10 point 2-fold serial dilution in DMSO to make 250× stock compound solution • Dilute compounds 1:125 in cell culture media to make a 2× solution Add • 25 μl of dilution compounds to cell plates in well duplicates Put cells back in incubator (6 hr incubation for black plates, 72 hr incubation for white plates).
Fix/Stain Black Plates: • Incubate cells in black plates with compound at 37 deg C. for 6 hrs. add 15 μL of 16% Paraformaldehyde (PFA) directly into media of each well, incubate at room temp for 5 min, flick plate and wash in 50 μL of PBS block in 50 μL of Blocking Buffer for 30 minutes (can go up to several hours) • Blocking buffer: 1×PBS, 1% BSA, 0.3% Triton-X 100, Hoechst (1:10,000) incubate in 25 μL of primary antibody in blocking buffer at 4 deg C. over night
Secondary Antibodies: • AlexaFluor488 Goat anti-Rabbit 1:2,000 (Life Tech A11008) • AlexaFluor555 Goat anti-Mouse 1:2.000 (Life Tech A21422)
Day 3/4 • Black Plate Staining (cont): • wash black plates 3× in 50 μL PBS (˜5 min each) incubate in 25 μl of secondary antibody (1:2,000) in blocking buffer for 1-2 hrs at room temp (alexafluor488-anti-Rabbit/alexafluor555-anti-Mouse) • wash 4× in 50 μL PBS (˜5 min each) • leave plates in PBS for imaging • clean bottom of plates with 70% EtOH
Imaging: • Image plates in high content microscope with 405 nm, 488 nm and 555 nm filters
Data Analysis: • Nuclear counts and cellular intensities of each markers are measured using Hoechst as a nuclear marker with an automated image analysis protocol using Matlab software (Math Works)

Test [2] deals with p97 (Homo sapiens, UniProt P55072). Kind of test: P97 ATPase biochemical assay (ADP Glo). The settings on record: 20 nM p97, 20 μM ATP, 37° C. for 15 minutes. As for the experimental part: The ATPase assay is performed according the following protocol: Purified enzyme (20 nM p97), substrate (20 μM ATP) and a dose titration of compounds are mixed in buffer (50 mM TRIS pH 7.5, 20 mM MgCl2, 0.02% TX-100, 1 mM DTT, 0.2% (v/v) glycerol) and incubated at 37° C. for 15 minutes. The reaction is terminated and the level of product generated is measured using the ADP Glo Assay Kit (Promega, Madison Wis.). Plotting product generated versus compound concentration and using a four-parameter fit model generates an IC50 value for each compounds.
The p97 assay is an initial screening assay used to determine inhibitory activity of the fused pyrimidine compounds of the invention against the p97 complex. As discussed above, inhibition of activity of the p97 proteosome complex can enable apoptosis and cause elimination of neoplastic cells (cancer cells). The method follows that of Christianson in Nat. Cell Biol., (2011) 14:93.
Assay Buffer is a mixture of 50 mM TRIS pH 7.5, 20 mM MgCl2, 0.02% TX-100, 1 mM DTT and 0.2% (v/v) Glycerol. The well plate is Platetype: Corning 3674, 384w plate. The identification kit is an ADP glo kit (Promega): stop buffer, detection reagent.
Serial dilute compound in DMSO in a 1:3.33-fold 10 point serial dilution.
in each well of 384w plate add the following reagents:
0.5 μL compound serial diluted in DMSO (Final Conc. 10%)
2 μL ATP (Final Conc.=20 uM, diluted in assay buffer)
2.5 μL p97 (Final Conc.=20 nM, diluted in assay buffer)
Incubate at 37 deg C. for 15 min.
Add 5 μL of stop buffer, incubate at RT for 40 min.
Add 10 μL of detection reagent, incubate at RT for 30 min.
Read luminescence on Envision plate reader.
Upon obtaining the data from the luminescence reading, the data may be analyzed as follows:
Normalize luminescence data using no enzyme (full inhibition) and no compound (no inhibition) controls. Plot normalized luminescence data against log-transformed concentration values and fit to a sigmoidal curve to determine IC50 values (done in Collaborative Drug Discovery software).
Background: ADP-Glo first removes unused ATP, then detects ADP through luciferase.

The subject of test [3] is A549 cells. Nature of the test: Cultured cancer cell viability assay (cell titer glo, CTG) in A549 cells. The settings on record: Homo sapiens; A549 cells, 72 hr incubation, cell titer glo; read-out: A549 CTG IC50. Format: cell-based.
Text: Anti-tumor effects are monitored in cultured cancer cells after several days of compound treatment. The cell titer glo assay (Promega) measures the amount of ATP present as a proxy for cellular viability. Cellular counting is done using high-content microscopy followed by image analysis. A hanging drop 3D-culture system (3D Biomatrix) is used followed by cell titer glo to measure growth in a tumor-like environment.
The cellular assay provides information about the anti-neoplastic activity of the compounds of the invention. The compounds are tested against cultured cancer cells to determine whether or not the compounds of the invention are capable of intersecting with cancer cells to minimize or eliminate such cells. The assay involves establishing colonies of such cells and then treating them with the test compound under specified conditions and analysis regima to determine results.
as §1, §2
Viability Assay: • Thaw an aliquot of frozen cell titer glo (Promega G7572) at room temperature. • Add 45 mL of NaCl/PBS solution to 5 ml of cell titer glo (10×). • Remove white plates from incubator, leave at room temp for 30 minutes. • Add 25 μl of diluted cell titer glo to each well. • Shake plate for >1 minute. • Incubate plate for >5 minutes to stabilize luminescence. • Luminescence is stable for up to 3 hours. • Read luminescence on plate reader

Molecules are shown by their SMILES.

p97, sequence (P55072 whole entry, the tested form may be a part): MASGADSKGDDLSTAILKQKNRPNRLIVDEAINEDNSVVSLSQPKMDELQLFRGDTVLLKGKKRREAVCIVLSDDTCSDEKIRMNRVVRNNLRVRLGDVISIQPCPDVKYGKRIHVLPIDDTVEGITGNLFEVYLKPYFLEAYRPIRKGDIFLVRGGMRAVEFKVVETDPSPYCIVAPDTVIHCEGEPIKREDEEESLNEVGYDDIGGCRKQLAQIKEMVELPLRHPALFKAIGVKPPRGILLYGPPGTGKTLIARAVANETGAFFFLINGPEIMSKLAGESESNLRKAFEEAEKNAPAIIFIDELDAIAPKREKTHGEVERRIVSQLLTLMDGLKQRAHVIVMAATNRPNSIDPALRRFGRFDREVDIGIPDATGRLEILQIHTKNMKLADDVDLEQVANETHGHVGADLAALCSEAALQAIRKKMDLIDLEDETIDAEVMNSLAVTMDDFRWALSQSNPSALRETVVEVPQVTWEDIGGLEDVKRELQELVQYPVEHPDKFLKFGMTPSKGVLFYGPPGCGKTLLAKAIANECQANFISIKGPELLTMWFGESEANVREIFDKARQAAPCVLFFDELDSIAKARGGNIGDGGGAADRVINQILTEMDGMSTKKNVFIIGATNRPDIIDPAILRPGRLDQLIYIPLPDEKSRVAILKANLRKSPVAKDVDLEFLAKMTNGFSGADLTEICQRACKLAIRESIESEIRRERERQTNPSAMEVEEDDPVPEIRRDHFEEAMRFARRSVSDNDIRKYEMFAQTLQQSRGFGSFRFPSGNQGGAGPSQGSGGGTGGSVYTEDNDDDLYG

As usually defined, the IC50 is the concentration that gives 50% inhibition. In the case of `COc1nc2c(C(N)=O)cccc2n1-c1nc2c(c(NCc3ccccc3)n1)CCCN2` [FF23, 1-(4-(benzylamino)-5,6,7,8-tetrahydropyrido[2,3-d]pyrimidin-2-yl)-2-methoxy-1H-benzo[d]imidazole-4-carboxamide], the IC50 is under 3 µM in test [1], under 0.03 µM in test [2] and under 3 µM in test [3].

As for `Cc1cc2c(C(N)=O)cccc2n1-c1nc2c(c(NCc3cccc(F)c3)n1)NCCC2` [FF25, 1-(4-((3-fluorobenzyl)amino)-5,6,7,8-tetrahydropyrido[3,2-d]pyrimidin-2-yl)-2-methyl-1H-indole-4-carboxamide], the IC50 in test [1] is under 3 µM; in test [2] it was under 0.03 µM; in test [3] it was under 3 µM.

Take `Cc1cc2c(C(N)=O)cccc2n1-c1nc(NCc2ccccc2)c2c(n1)OCC2` [FF08, 1-(4-(benzylamino)-5,6-dihydrofuro[2,3-d]pyrimidin-2-yl)-2-methyl-1H-indole-4-carboxamide]: the figures for the IC50 in test [1], in test [2] and in test [3] were under 3 µM, under 0.1 µM and under 3 µM, respectively.

In the case of `NC(=O)c1cccc2c1cnn2-c1nc(NCc2ccccc2)c2c(n1)OCCC2` [FF28, 1-(4-(benzylamino)-6,7-dihydro-5H-pyrano[2,3-d]pyrimidin-2-yl)-1H-indazole-4-carboxamide], the half-maximal inhibitory concentration (IC50) in test [1] was under 3 µM; in test [2], under 0.1 µM; in test [3], under 3 µM.

On to `Cc1cc2c(C(N)=O)cccc2n1-c1nc(NCc2cc(F)cc(F)c2)c2c(n1)OCCC2` [FF30, 1-(4-((3,5-difluorobenzyl)amino)-6,7-dihydro-5H-pyrano[2,3-d]pyrimidin-2-yl)-2-methyl-1H-indole-4-carboxamide], for which the IC50 was under 3 µM in test [1], under 0.03 µM in test [2] and under 3 µM in test [3].

Turning to `Cc1cc2c(C(N)=O)cccc2n1-c1nc(NCc2cccc(F)c2)c2c(n1)OCCC2` [FF09, 1-(4-((3-fluorobenzyl)amino)-6,7-dihydro-5H-pyrano[2,3-d]pyrimidin-2-yl)-2-methyl-1H-indole-4-carboxamide], the half-maximal inhibitory concentration (IC50) in test [1] is under 1 µM; in test [2], under 0.03 µM; in test [3], under 1 µM.

With `Cc1[nH]c2c(C(N)=O)cccc2c1-c1nc2c(c(NCc3ccccc3)n1)COCC2` [FF10, 3-(4-(benzylamino)-7,8-dihydro-5H-pyrano[4,3-d]pyrimidin-2-yl)-2-methyl-1H-indole-7-carboxamide], the IC50 in test [1] was under 3 µM; in test [2], under 0.1 µM; in test [3], under 3 µM.

With `Cc1cc2c(C(N)=O)cccc2n1-c1nc2c(c(NCc3ccccc3)n1)CCCN2` [FF07, 1-(4-(benzylamino)-5,6,7,8-tetrahydropyrido[2,3-d]pyrimidin-2-yl)-2-methyl-1H-indole-4-carboxamide], the IC50 in test [1] is under 1 µM; in test [2], under 0.03 µM; in test [3] it was under 1 µM.

For `Cc1[nH]c2c(C(N)=O)cccc2c1-c1nc2c(c(NCc3ccccc3)n1)CCCC2` [FF05, 3-(4-(benzylamino)-5,6,7,8-tetrahydroquinazolin-2-yl)-2-methyl-1H-indole-7-carboxamide], the IC50 in test [1] was under 3 µM; in test [2] it was under 0.03 µM; in test [3], under 3 µM.

Turning to `Cc1cc2c(C(N)=O)cccc2n1-c1nc(NCc2ccccc2)c2c(n1)N(C)CCC2` [FF29, 1-(4-(benzylamino)-8-methyl-5,6,7,8-tetrahydropyrido[2,3-d]pyrimidin-2-yl)-2-methyl-1H-indole-4-carboxamide], the IC50 in test [1] was under 3 µM; in test [2], under 0.03 µM; in test [3], under 3 µM.

Regarding `Cc1cc2c(C(N)=O)cccc2n1-c1nc2c(c(NCc3ccccc3)n1)NCCC2` [FF34, 1-(4-(benzylamino)-5,6,7,8-tetrahydropyrido[3,2-d]pyrimidin-2-yl)-2-methyl-1H-indole-4-carboxamide], the figures for the IC50 in test [1], in test [2] and in test [3] were under 1 µM, under 0.03 µM and under 1 µM, respectively.

For `Cc1cc2c(C(N)=O)cccc2n1-c1nc2c(c(NCc3cccc(F)c3)n1)CCCN2` [FF26, 1-(4-((3-fluorobenzyl)amino)-5,6,7,8-tetrahydropyrido[2,3-d]pyrimidin-2-yl)-2-methyl-1H-indole-4-carboxamide], the IC50 in test [1] is under 3 µM; in test [2] it was under 0.03 µM; in test [3] it was under 3 µM.

Regarding `Cc1cc2c(C(N)=O)cccc2n1-c1nc2c(c(NCc3cccc(F)c3)n1)N(C)CCC2` [FF12, 1-(4-((3-fluorobenzyl)amino)-5-methyl-5,6,7,8-tetrahydropyrido[3,2-d]pyrimidin-2-yl)-2-methyl-1H-indole-4-carboxamide], the results for the IC50 in test [1], in test [2] and in test [3] were under 1 µM, under 0.03 µM and under 1 µM, respectively.

With `COc1nc2c(C(N)=O)cccc2n1-c1nc(NCc2ccccc2)c2c(n1)OCCC2` [FF24, 1-(4-(benzylamino)-6,7-dihydro-5H-pyrano[2,3-d]pyrimidin-2-yl)-2-methoxy-1H-benzo[d]imidazole-4-carboxamide], the IC50 in test [1] is under 3 µM; in test [2], under 0.03 µM; in test [3] it was under 3 µM.

Turning to `Cc1cc2c(C(N)=O)cccc2n1-c1nc2c(c(NCc3ccccc3)n1)N(C)CCC2` [FF21, 1-(4-(benzylamino)-5-methyl-5,6,7,8-tetrahydropyrido[3,2-d]pyrimidin-2-yl)-2-methyl-1H-indole-4-carboxamide], the half-maximal inhibitory concentration (IC50) in test [1] is under 1 µM; in test [2], under 0.03 µM; in test [3], under 1 µM.

Take `NCc1cc2c(C(N)=O)cccc2n1-c1nc(NCc2ccccc2)c2c(n1)OCCC2` [FF32, 2-(aminomethyl)-1-(4-(benzylamino)-6,7-dihydro-5H-pyrano[2,3-d]pyrimidin-2-yl)-1H-indole-4-carboxamide]: the half-inhibitory concentration (IC50) was under 10 µM in test [1], under 0.1 µM in test [2] and under 10 µM in test [3].
